Patent publication US6506607B1, “Methods and compositions for the identification and assessment of prostate cancer therapies and the diagnosis of prostate cancer” (Millennium Pharmaceuticals, Inc., priority 1997, dated 2003)

Test system: LNCaP cells
Assay: Gene expression in bicalutamide-treated vs untreated LNCaP cells (subtraction library, Gene Expression Micro-Array)
Format: cell-based
Conditions: 25 hours

SMILES: CC(O)(CS(=O)(=O)c1ccc(F)cc1)C(=O)Nc1ccc(C#N)c(C(F)(F)F)c1 (centres unmarked) [bicalutamide, Bicalutamide]
- FOLD INCREASE IN mRNA: HU-K4 {470677} (SEQ ID NO 145, 100 nM bicalutamide): 3.6 fold
- FOLD INCREASE IN mRNA: ESTs {126530} (SEQ ID NO 146, 100 nM bicalutamide): 3.5 fold
- FOLD INCREASE IN mRNA: ESTs {429327} (SEQ ID NO 147, 100 nM bicalutamide): 3.5 fold
- FOLD INCREASE IN mRNA: Vascular endothelial growth factor (VEGF (165)) {488697} (SEQ ID NO 148, 100 nM bicalutamide): 3.2 fold
- FOLD INCREASE IN mRNA: ESTs {50914} (SEQ ID NO 149, 100 nM bicalutamide): 3.1 fold
- FOLD INCREASE IN mRNA: ESTs {279847} (SEQ ID NO 150, 100 nM bicalutamide): 3.1 fold
- FOLD INCREASE IN mRNA: ESTs {361548} (SEQ ID NO 151, 100 nM bicalutamide): 3.1 fold
- FOLD INCREASE IN mRNA: ESTs {364730} (SEQ ID NO 152, 100 nM bicalutamide): 3.1 fold
- FOLD INCREASE IN mRNA: ESTs {470212} (SEQ ID NO 153, 100 nM bicalutamide): 3.1 fold
- FOLD INCREASE IN mRNA: ESTs {471210} (SEQ ID NO 154, 100 nM bicalutamide): 3.1 fold
- FOLD INCREASE IN mRNA: ESTs {289300} (SEQ ID NO 155, 100 nM bicalutamide): 3 fold
- FOLD INCREASE IN mRNA: ESTs {427725} (SEQ ID NO 156, 100 nM bicalutamide): 3 fold
- FOLD INCREASE IN mRNA: ESTs {428217} (SEQ ID NO 157, 100 nM bicalutamide): 2.9 fold
- FOLD INCREASE IN mRNA: rfp transforming protein {485268} (SEQ ID NO 158, 100 nM bicalutamide): 2.8 fold
- FOLD INCREASE IN mRNA: ESTs {487420} (SEQ ID NO 159, 100 nM bicalutamide): 2.8 fold
- FOLD INCREASE IN mRNA: 60S RIBOSOMAL PROTEIN L18A {509699} (SEQ ID NO 160, 100 nM bicalutamide): 2.8 fold
- FOLD INCREASE IN mRNA: ESTs {31943} (SEQ ID NO 161, 100 nM bicalutamide): 2.7 fold
- FOLD INCREASE IN mRNA: ESTs {376271} (SEQ ID NO 162, 100 nM bicalutamide): 2.7 fold
- FOLD INCREASE IN mRNA: ESTs {469642} (SEQ ID NO 163, 100 nM bicalutamide): 2.7 fold
- FOLD INCREASE IN mRNA: ESTs {471826} (SEQ ID NO 164, 100 nM bicalutamide): 2.7 fold
- FOLD INCREASE IN mRNA: KIAA0262 {485008} (SEQ ID NO 165, 100 nM bicalutamide): 2.7 fold
- FOLD INCREASE IN mRNA: ESTs {292082} (SEQ ID NO 166, 100 nM bicalutamide): 2.6 fold
- FOLD INCREASE IN mRNA: ESTs {365557} (SEQ ID NO 167, 100 nM bicalutamide): 2.6 fold
- FOLD INCREASE IN mRNA: Immunogloblin light chain (lambda) {119218} (SEQ ID NO 168, 100 nM bicalutamide): 2.5 fold
- FOLD INCREASE IN mRNA: ELP-1 {147979} (SEQ ID NO 169, 100 nM bicalutamide): 2.5 fold
- FOLD INCREASE IN mRNA: TRAMP protein {149355} (SEQ ID NO 170, 100 nM bicalutamide): 2.5 fold
- FOLD INCREASE IN mRNA: ESTs {294078} (SEQ ID NO 171, 100 nM bicalutamide): 2.5 fold
- FOLD INCREASE IN mRNA: ESTs {291005} (SEQ ID NO 172, 100 nM bicalutamide): 2.5 fold
- FOLD INCREASE IN mRNA: ESTs {365907} (SEQ ID NO 173, 100 nM bicalutamide): 2.5 fold
- FOLD INCREASE IN mRNA: ESTs {427801} (SEQ ID NO 174, 100 nM bicalutamide): 2.5 fold
- FOLD INCREASE IN mRNA: ESTs {469515} (SEQ ID NO 175, 100 nM bicalutamide): 2.5 fold
- FOLD INCREASE IN mRNA: Tral mRNA for human homologue of murine tumor rejection antigen gp96 {509486} (SEQ ID NO 176, 100 nM bicalutamide): 2.5 fold
- FOLD INCREASE IN mRNA: Biotin-[propionyl-CoA-carboxylase (ATP-hydrolysing)] {176590} (SEQ ID NO 177, 100 nM bicalutamide): 2.4 fold
- FOLD INCREASE IN mRNA: Tral mRNA for human homologue of murine tumor rejection antigen gp96 {242829} (SEQ ID NO 178, 100 nM bicalutamide): 2.4 fold
- FOLD INCREASE IN mRNA: Cancellous bone osteoblast mRNA for GS3786 {486005} (SEQ ID NO 179, 100 nM bicalutamide): 2.4 fold
- FOLD INCREASE IN mRNA: ESTs {509583} (SEQ ID NO 180, 100 nM bicalutamide): 2.4 fold
- FOLD INCREASE IN mRNA: ESTs {44551} (SEQ ID NO 181, 100 nM bicalutamide): 2.3 fold
- FOLD INCREASE IN mRNA: ESTs {245853} (SEQ ID NO 182, 100 nM bicalutamide): 2.3 fold
- FOLD INCREASE IN mRNA: ESTs {306075} (SEQ ID NO 183, 100 nM bicalutamide): 2.3 fold
- FOLD INCREASE IN mRNA: ESTs {322143} (SEQ ID NO 184, 100 nM bicalutamide): 2.3 fold
- FOLD INCREASE IN mRNA: ESTs {322749} (SEQ ID NO 185, 100 nM bicalutamide): 2.3 fold
- FOLD INCREASE IN mRNA: ESTs {359877} (SEQ ID NO 186, 100 nM bicalutamide): 2.3 fold
- FOLD INCREASE IN mRNA: ESTs {360446} (SEQ ID NO 187, 100 nM bicalutamide): 2.3 fold
- FOLD INCREASE IN mRNA: ESTs {360789} (SEQ ID NO 188, 100 nM bicalutamide): 2.3 fold
- FOLD INCREASE IN mRNA: Protein tyrosine kinase t-Rorl {418257} (SEQ ID NO 189, 100 nM bicalutamide): 2.3 fold
- FOLD INCREASE IN mRNA: ESTs {486712} (SEQ ID NO 190, 100 nM bicalutamide): 2.3 fold
- FOLD INCREASE IN mRNA: ESTs {489106} (SEQ ID NO 191, 100 nM bicalutamide): 2.3 fold
